Results taken from patent publication EP4703354A1, “COMPOUND AS CCR6 ANTAGONIST, AND PHARMACEUTICAL COMPOSITION AND USE THEREOF” (Wuhan Createrna Science and Technology Co.,Ltd., priority 2023, dated 2024).
Like-named read-outs stand apart in the source and are kept apart here.

How the values were obtained:
human CCR6 = biological target: T1, human CCR6 (Homo sapiens, UniProt P51684); assay: human CCR6 calcium flux activity (FLIPR, HEK293 cells stably expressing human CCR6, CCL20 stimulation); assay type: cell-based; conditions: HEK293 cells stably expressing human CCR6, EC80 human MIP-3 alpha/CCL20; read-out: CCR6 inhibitory activity, IC50
T1 construct: expressed in transfected cells; host or cells: HEK293
T1 sequence (P51684 1-374): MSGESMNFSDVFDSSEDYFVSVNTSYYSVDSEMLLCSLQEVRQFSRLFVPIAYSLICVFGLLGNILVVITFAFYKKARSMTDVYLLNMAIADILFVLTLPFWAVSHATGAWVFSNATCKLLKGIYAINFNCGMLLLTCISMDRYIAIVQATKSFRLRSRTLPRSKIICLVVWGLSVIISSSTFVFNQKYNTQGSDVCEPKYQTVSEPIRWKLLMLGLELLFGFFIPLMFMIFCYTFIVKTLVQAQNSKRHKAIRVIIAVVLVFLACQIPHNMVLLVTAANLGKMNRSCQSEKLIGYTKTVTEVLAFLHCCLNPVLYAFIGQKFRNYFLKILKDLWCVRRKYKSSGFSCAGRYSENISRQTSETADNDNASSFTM
Protocol: The activity of the compounds was evaluated using HEK293 cells stably expressing human CCR6 via the FLIPR platform. A 384-well black cell culture plate (Greiner, 781946) was used, with a seeding density of 20,000 cells/well, and incubated overnight at 37°C in a 5% CO2 incubator. The culture medium in the cell plate wells was removed, and 20 µL of Fluo-4 Direct™ Calcium Assay Buffer (Invitrogen, F10471, Component C), 20 µL of 2× Fluo-4 Direct™ Calcium Assay Reagent (Invitrogen, F10471, Component A) working solution, and 10 µL of 6× test compound working solution were sequentially added to each well. The cell plate was incubated in a 37 °C, 5% CO2 incubator for 50 min, followed by a 10 min incubation at room temperature. Additionally, a 6×EC80 human MIP-3 alpha/CCL20 (MCE, HY-P7262) working solution was prepared. After the incubation was completed, 10 µL/well of the 6×EC80 human MIP-3 alpha/CCL20 working solution was transferred to the cell plate using a FLIPR instrument, and the fluorescence signal changes at an excitation wavelength of 494 nm and an emission wavelength of 516 nm were recorded over 90 seconds. The difference between the maximum fluorescence signal (RFUMax) and the minimum fluorescence signal (RFUMin) was used as the output signal. The compound inhibition rate and the log value of the compound concentration were calculated, and a four-parameter fitting analysis was performed using GraphPad Prism 8 software to obtain the IC50 value of the test compound.

[1] = in vivo pharmacokinetic study in SD rats; conditions: rat; for bioavailability: 1 mg/kg PO vs 1 mg/kg IV, read-out: Oral bioavailability F (%); for AUC(0-t) / Cmax / half-life: 1 mg/kg
Protocol: 2.2.1 Rats: SD rats, SPF grade, 6 rats per compound, male, body weight range 180-200 g.
2.2.2 Housing conditions: The animals were housed in an SPF-grade animal facility with free access to food and water, three per cage, under a 12/12-hour light/dark cycle (7:00 am/7:00 pm), at a temperature of 23 ± 3°C.
2.2.3 Drug preparation: The compound was precisely weighed, mixed with the required volume of 1% Tween 80, vortexed for 2 min, and then sonicated for 5 min until no visible particles remained. The mixture was subsequently stirred on a magnetic stirrer for 20 min, and the middle layer of the drug solution was collected for administration. For the IV group, the compound was accurately weighed, dissolved in the required volume of 50% PEG400, sonicated for 10 min, and vortexed until clear before administration.
The rats were randomly divided into 2 groups based on body weight, with 3 rats per compound per group. Group 1 was administered a single oral gavage dose (fasted), and Group 2 was administered a single tail vein bolus injection. Blood collection time points: for the po group, blood was collected at 0.167 h, 0.5 h, 1 h, 2 h, 3 h, 4 h, 6 h, and 8 h; for the iv group, blood was collected at 0.033 h, 0.167 h, 0.5 h, 1 h, 2 h, 4 h, 6 h, and 8 h.
After administration to the rats, blood was collected from the orbital venous plexus according to the sampling time points. Approximately 0.2-0.3 mL of blood was collected at each time point into anticoagulant EP tubes (containing 4 µL of EDTA-K2, 375 mg/mL, dried at 50°C). The tubes were slowly inverted up and down three times and stored in an ice box (for no more than 30 minutes). Centrifugation was performed at 4°C at 3000 × g for 10 minutes, and the supernatant was transferred to labeled EP tubes for bioanalytical testing. If testing could not be performed on the same day, the samples were stored at -80°C until analysis (care was taken to avoid multiple freeze/thaw cycles).
The data were analyzed using WinNonlin via a non-compartmental model to obtain PK parameters (Cmax, AUC0-last, AUCinf, T1/2, etc., selected based on different routes of administration). For specific data, please refer to Table 2. Table 2. PK experimental results of compounds in SD rats

Work on `CN(C)C(=O)c1nccc(Nc2c(N[C@@H](C#CC3CCC3)[C@@]3(C)CC(F)(F)CO3)c(=O)c2=O)c1O` (single isomer, unassigned) [110B] yielded an IC50 (human CCR6) of 53.6 nM.

`CN(C)C(=O)c1nccc(Nc2c(NC(C(=O)C3CCC3)C3(C)CCCC3)c(=O)c2=O)c1O` (stereo not drawn) [compound 035, 4-((2-((2-cyclobutyl-1-(1-methylcyclopentyl)-2-oxoethyl)amino)-3,4-dioxocyclobut-1-en-1-yl)amino)-3-hydroxy-N,N-dimethylpicolinamide] showed an IC50 (human CCR6) of 820 nM.

With `Cc1ccc(F)nc1C(Nc1c(Nc2ccnc(C(=O)N(C)C)c2O)c(=O)c1=O)C1(C)CC2CC2C1` (stereo not drawn) [compound 121, 4-((2-(((6-fluoro-3-methylpyridin-2-yl)(3-methylbicyclo[3.1.0]hexan-3-yl)methyl)amino)-3,4-dioxocyclobut-1-en-1-yl)amino)-3-hydroxy-N,N-dimethylpicolinamide] the IC50 (human CCR6) was 86.2 nM.

In the case of `CN(C)C(=O)c1nccc(Nc2c(N[C@@H](c3ccccc3)C3(C)CCCC3)c(=O)c2=O)c1O` [compound 037, (R)-3-hydroxy-N,N-dimethyl-4-((2-(((1-methylcyclopentyl)(phenyl)methyl)amino)-3,4-dioxocyclobut-1-en-1-yl)amino)picolinamide], the IC50 (human CCR6) is reported as 95.8 nM.

`CN(C)C(=O)c1nccc(Nc2c(N[C@@H](c3ccc(F)c(F)n3)C3(C)CCCC3)c(=O)c2=O)c1O` [compound 024, (R)-4-((2-(((5,6-difluoropyridin-2-yl)(1-methylcyclopentyl)methyl)amino)-3,4-dioxocyclobut-1-en-1-yl)amino)-3-hydroxy-N,N-dimethylpicolinamide] gave an IC50 (human CCR6) of 47.4 nM.

For `Cc1cccnc1C(Nc1c(Nc2ccnc(C(=O)N(C)C)c2O)c(=O)c1=O)C1(C)CCC2CC21` (stereo not drawn) [compound 123, 3-hydroxy-N,N-dimethyl-4-((2-(((2-methylbicyclo[3.1.0]hexan-2-yl)(3-methylpyridin-2-yl)methyl)amino)-3,4-dioxocyclobut-1-en-1-yl)amino)picolinamide], the IC50 (human CCR6) was 265 nM.

Work on `Cc1cccnc1[C@H](Nc1c(Nc2ccc(C)c(C(=O)N(C)C)c2O)c(=O)c1=O)C1(C)CCCC1` [compound 103, (R)-2-hydroxy-N,N,6-trimethyl-3-((2-(((1-methylcyclopentyl)(3-methylpyridin-2-yl)methyl)amino)-3,4-dioxocyclobut-1-en-1-yl)amino)benzamide] yielded an IC50 (human CCR6) of 73.6 nM.

For `CN(C)C(=O)c1nccc(Nc2c(N[C@@H](C#Cc3ccccn3)C3(C)CCCC3)c(=O)c2=O)c1O` [compound 118, (R)-3-hydroxy-N,N-dimethyl-4-((2-((1-(1-methylcyclopentyl)-3-(pyridin-2-yl)prop-2-yn-1-yl)amino)-3,4-dioxocyclobut-1-en-1-yl)amino)picolinamide], the IC50 (human CCR6) was 183 nM.

Work on `CN(C)C(=O)c1nccc(Nc2c(N[C@@H](c3ncccc3C(F)F)C3(C)CCCC3)c(=O)c2=O)c1O` [compound 015, (R)-4-((2-(((3-(difluoromethyl)pyridin-2-yl)(1-methylcyclopentyl)methyl)amino)-3,4-dioxocyclobut-1-en-1-yl)amino)-3-hydroxy-N,N-dimethylpicolinamide] yielded an IC50 (human CCR6) of 161 nM.

`Cc1cccnc1C(Nc1c(Nc2ccnc(C(=O)N(C)C)c2O)c(=O)c1=O)C1(C)CCC(F)(F)C1` (single isomer, unassigned) [125B] showed a bioavailability ([1]; in vivo) of 136%, an AUC(0-t) ([1]; in vivo, IV) of 1500 ng·h/mL and a Cmax ([1]; in vivo, IV) of 3050 ng/mL. It also gave an AUC(0-t) ([1]; in vivo, PO) of 2040 ng·h/mL, a Cmax ([1]; in vivo, PO) of 822 ng/mL and a half-life ([1]; in vivo, PO) of 82.2 min.

`Cc1cc(F)cnc1[C@H](Nc1c(Nc2ccnc(C(=O)N(C)C)c2O)c(=O)c1=O)[C@@]1(C)CC(F)(F)CO1` [093B, 4-((2-(((S)-((R)-4,4-difluoro-2-methyltetrahydrofuran-2-yl)(5-fluoro-3-methylpyridin-2-yl)methyl)amino)-3,4-dioxocyclobut-1-en-1-yl)amino)-3-hydroxy-N,N-dimethylpicolinamide] gave a bioavailability ([1]; male, plasma) of 51.6%, an AUC(0-t) ([1]; male, plasma, IV) of 716 ng·h/mL and a Cmax ([1]; male, plasma, IV) of 1890 ng/mL. It also gave an AUC(0-t) ([1]; male, plasma, PO) of 370 ng·h/mL, a Cmax ([1]; male, plasma, PO) of 285 ng/mL and a half-life ([1]; male, plasma, PO) of 230 min.
